Source: US20160355530A1, “HEPATITIS C INHIBITORS AND USES THEREOF” (AbbVie Inc., priority 2010, published 2016)
Where two headings read alike, the source gives them in different places.

Experiments:
[1] = molecular target: T1, HCV NS5B polymerase 1a-H77 (Hepatitis C virus genotype 1a, UniProt P27958); assay: biochemical; design: species or system HCV genotype 1a; settings: enzyme, strain 1a H77; read-out: HCV Polymerase Strain 1a H77 IC50
T1 construct: six-histidine tag; made in house; host or cells: E. coli
T1 sequence (P27958 2421-2990): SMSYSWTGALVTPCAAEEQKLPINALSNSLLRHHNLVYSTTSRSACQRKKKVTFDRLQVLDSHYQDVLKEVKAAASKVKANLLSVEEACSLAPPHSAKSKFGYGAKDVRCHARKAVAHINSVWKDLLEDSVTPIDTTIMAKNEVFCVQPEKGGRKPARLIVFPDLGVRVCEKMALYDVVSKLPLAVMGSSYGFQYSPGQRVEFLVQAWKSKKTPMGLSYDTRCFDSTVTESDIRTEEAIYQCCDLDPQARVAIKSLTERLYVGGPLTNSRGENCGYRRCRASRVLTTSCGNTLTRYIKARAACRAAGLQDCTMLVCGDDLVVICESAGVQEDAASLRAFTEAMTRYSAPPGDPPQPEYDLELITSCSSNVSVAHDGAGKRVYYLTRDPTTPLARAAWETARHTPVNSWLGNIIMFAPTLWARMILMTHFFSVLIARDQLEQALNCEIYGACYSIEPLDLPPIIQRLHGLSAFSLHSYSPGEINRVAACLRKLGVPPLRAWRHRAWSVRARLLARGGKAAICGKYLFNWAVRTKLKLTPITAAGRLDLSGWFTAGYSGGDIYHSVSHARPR
Protocol: (§1) Purified HCV NS5B polymerase enzymes were used for polymerase inhibition assays. All recombinant HCV polymerases contained the first 570 amino acids of the 591 amino acid native protein sequence and a six-histidine tag at the N-terminus or C-terminus to facilitate purification by affinity chromatography. The DNA nucleotide sequence for the HCV polymerase 1b BK strain was codon optimized for expression in E. coli. A synthetic gene was prepared from a series of overlapping oligonucleotides that were filled in using a DNA polymerase and amplified by PCR. The patient isolate HCV polymerases were cloned by RT-PCR methods using HCV RNA extracted from the serum of infected subjects obtained from ProMedDx and BioCollections (genotypes 2a, 2b, 3a, and 4a). Laboratory strains were cloned from plasmid DNA (1a-H77 or 1a-H77-C316Y) or from existing replicon cells (1b Rice). In all cases the amplified DNA was cloned into a protein expression vector (typically a pET vector from Novagen) and then multiple clones were sequenced to identify one whose NS5B sequence agreed with the population sequence. This sequence-confirmed clone was then transfected into E. coli for protein expression and purification. E. coli cultures were grown to a maximum optical density (OD) of 2-3 and then induced with 0.4 mM isopropyl beta-D-thiogalactopyranoside (IPTG) and grown for 20 hours at 20° C.
(§2) Proteins were purified using nickel affinity chromatography, and additional column steps were added including, ion exchange, size exclusion, hydrophobic ion, and poly-U affinity chromatography, as needed, depending on the sample being purified. The template RNA used in the polymerase enzymatic assay was a 2.1 kb construct that corresponds to the 3′-end of an HCV genotype 1b negative strand RNA.
(§3) The reaction was initiated by the addition of 20 μM CTP, 20 μM ATP, 0.284 μM (0.5 μCi) of 5,6-[^3H] UTP, 5 nM template RNA and 0.1 U/μL RNase inhibitor (RNasin, Promega), and allowed to proceed for three hours at 30° C. The final reaction volume was 50 μL. The reaction was terminated by the addition of 50 uL of 4 mM spermine in 10 mM Tris-HCl, pH 7.5, 1 mM EDTA. The quenched reaction was allowed to incubate for at least 15 minutes at room temperature, and then the precipitated RNA was captured by filtration through a glass fiber filter (GF/B, Millipore) in a 96 well format. The filter plate was washed five times with 200 μL of 2 mM spermine, 10 mM Tris-HCl, pH 8.0, 1 mM EDTA, and two times with ethanol. After drying thoroughly in air, 30 μL of Microscint-20 scintillation cocktail (Perkin Elmer) was added to each well, and the retained cpm were determined by scintillation counting. IC50 values were determined by nonlinear regression.
(§4) % Inhibition=100*[[I]/([I]+[IC50])] equation 1
(§5) V=kcat[S]/2(Km+[S])*(sqrt((IC50+I−E)̂2+(4*IC50*E))−(IC50+I−E)) equation 2

[2] = molecular target: T2, HCV NS5B polymerase 1a-H77-C316Y (Hepatitis C virus genotype 1a, UniProt P27958, C2736Y); assay: biochemical; design: species or system HCV genotype 1a
T2 construct: six-histidine tag; made in house; host or cells: E. coli
T2 sequence (P27958 2421-2990 C2736Y): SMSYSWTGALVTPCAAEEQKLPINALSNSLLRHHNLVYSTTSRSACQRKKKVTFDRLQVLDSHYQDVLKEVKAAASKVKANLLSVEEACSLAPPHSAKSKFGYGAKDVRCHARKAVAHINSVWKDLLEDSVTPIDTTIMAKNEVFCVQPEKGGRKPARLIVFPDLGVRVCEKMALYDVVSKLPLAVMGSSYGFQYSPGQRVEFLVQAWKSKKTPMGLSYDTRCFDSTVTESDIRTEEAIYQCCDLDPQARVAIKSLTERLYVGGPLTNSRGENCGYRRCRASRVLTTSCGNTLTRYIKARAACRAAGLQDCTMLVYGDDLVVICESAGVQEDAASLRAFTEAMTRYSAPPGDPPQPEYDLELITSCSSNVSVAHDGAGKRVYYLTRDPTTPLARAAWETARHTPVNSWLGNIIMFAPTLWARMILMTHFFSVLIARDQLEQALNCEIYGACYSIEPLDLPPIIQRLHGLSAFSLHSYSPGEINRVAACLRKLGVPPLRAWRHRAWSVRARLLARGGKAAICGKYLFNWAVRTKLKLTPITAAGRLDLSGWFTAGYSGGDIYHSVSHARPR
Protocol: as §1, §2, §3, §4, §5

[3] = test system: HCV NS5B polymerase 1a-H77-C316Y; assay: biochemical; design: species or system HCV genotype 1a; settings: ratio of enzyme IC50s, 1a H77-C316Y / 1a H77
Protocol: as §1, §2, §3, §4, §5

[4] = molecular target: T3, HCV NS5B polymerase 1b BK strain (Hepatitis C virus genotype 1b, UniProt P26663); assay: HCV NS5B polymerase enzymatic inhibition assay, strain 1b BK; type: biochemical; settings: enzyme, strain 1b BK; read-out: HCV Polymerase Strain 1b BK IC50
T3 construct: six-histidine tag; made in house; host or cells: E. coli
T3 sequence (P26663 2420-2989): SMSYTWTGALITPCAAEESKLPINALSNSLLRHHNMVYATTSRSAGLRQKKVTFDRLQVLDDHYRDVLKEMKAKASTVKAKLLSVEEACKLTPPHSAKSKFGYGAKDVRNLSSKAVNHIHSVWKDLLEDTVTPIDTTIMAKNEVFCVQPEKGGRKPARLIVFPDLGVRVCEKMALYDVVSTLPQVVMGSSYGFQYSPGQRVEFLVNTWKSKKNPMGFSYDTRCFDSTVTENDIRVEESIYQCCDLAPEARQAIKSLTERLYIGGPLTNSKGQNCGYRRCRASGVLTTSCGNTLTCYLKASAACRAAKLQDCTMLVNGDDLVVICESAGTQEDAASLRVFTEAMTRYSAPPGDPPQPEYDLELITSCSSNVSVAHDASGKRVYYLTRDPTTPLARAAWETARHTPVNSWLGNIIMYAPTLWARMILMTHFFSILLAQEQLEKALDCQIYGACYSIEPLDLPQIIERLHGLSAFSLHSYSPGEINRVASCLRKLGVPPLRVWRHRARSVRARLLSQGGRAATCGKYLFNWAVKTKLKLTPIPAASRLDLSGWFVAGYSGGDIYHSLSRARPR
Protocol: as §1, §2, §3, §4, §5

[5] = test system: HCV 1a-H77 subgenomic replicon; assay: microbe, parasite or virus in culture; type: cell-based, HCV genotype 1a; settings: Hepatitis C virus, stable replicon
[6] = test system: HCV 1b-BB7 subgenomic replicon; assay: microbe, parasite or virus in culture; type: cell-based, HCV genotype 1b; settings: Hepatitis C virus, stable replicon
[7] = 5% FBS, absence of human plasma, read-out: Stable Replicon 1a H77 5% FBS EC50
[8] = strain 1a H77, 5% FBS + 40% human plasma, read-out: 1a H77 5% FBS + 40% Human Plasma EC50
[9] = strain 1a H77, 5% FBS, no human plasma, read-out: 1a H77 5% FBS EC50
[10] = strain 1a H77, 5% FBS, read-out: 1a H77 5% FBS EC50
[11] = strain 1b BB7, 5% FBS + 40% human plasma, read-out: 1b BB7 5% FBS + 40% Human Plasma EC50
[12] = strain 1b BB7, 5% FBS, no human plasma, read-out: 1b BB7 5% FBS EC50
[13] = strain 1b BB7, 5% FBS, read-out: 1b BB7 5% FBS EC50

SMILES | IC50 [1] | IC50 [2] | C316Y/1a Fold Resistance [3] | IC50 [4] | EC50 [5, 7] | EC50 [5, 8] | EC50 [5, 9] | EC50 [5, 10] | EC50 [6, 11] | EC50 [6, 12] | EC50 [6, 13]
COc1ccc(CN(c2cc3oc(-c4ccc(F)cc4)c(C4=NC(C)CN4)c3cc2C2CC2)S(C)(=O)=O)cc1 (centres unmarked) [Example 2a, N-[5-cyclopropyl-2-(4-fluorophenyl)-3-(4-methyl-4,5-dihydro-1H-imidazol-2-yl)-1-benzofuran-6-yl]-N-(4-methoxybenzyl)methanesulfonamide] | 0.015 µM | 0.224 µM | 15 fold | 0.055 µM |  |  |  |  |  |  | 
CC(C)(C)[Si](C)(C)OCCCCN(c1cc2oc(-c3ccc(F)cc3)c(-c3ncc[nH]3)c2cc1C1CC1)S(C)(=O)=O [Example 42, N-(4-{[tert-butyl(dimethyl)silyl]oxy}butyl)-N-[5-cyclopropyl-2-(4-fluorophenyl)-3-(1H-imidazol-2-yl)-1-benzofuran-6-yl]methanesulfonamide] | 0.083 µM |  |  | 0.781 µM | 0.214 µM | 7.41 µM | 0.214 µM | 0.214 µM | 3.39 µM | 0.119 µM | 0.119 µM
CS(=O)(=O)N(CN1C(=O)c2ccccc2C1=O)c1cc2oc(-c3ccc(F)cc3)c(-c3ncc[nH]3)c2cc1C1CC1 [Example 82, N-[5-cyclopropyl-2-(4-fluorophenyl)-3-(1H-imidazol-2-yl)-1-benzofuran-6-yl]-N-[(1,3-dioxo-1,3-dihydro-2H-isoindol-2-yl)methyl]methanesulfonamide] | 0.35 µM |  |  | 3 µM | 2.63 µM |  | 2.63 µM | 2.63 µM |  | 1.58 µM | 1.58 µM
CC(C)CCN(c1cc2oc(-c3ccc(F)cc3)c(C3=NOC(C)(C)N3)c2cc1C1CC1)S(C)(=O)=O [Example 152, N-[5-cyclopropyl-3-(5,5-dimethyl-4,5-dihydro-1,2,4-oxadiazol-3-yl)-2-(4-fluorophenyl)-1-benzofuran-6-yl]-N-(3-methylbutyl)methanesulfonamide] | 0.118 µM |  |  | 3.6 µM | 10 µM |  | 10 µM | 10 µM |  | 10 µM | 10 µM
CCCc1nc(-c2c(-c3ccc(F)cc3)oc3cc(N(CCC(C)C)S(C)(=O)=O)c(C4CC4)cc23)no1 [Example 153, N-[5-cyclopropyl-2-(4-fluorophenyl)-3-(5-propyl-1,2,4-oxadiazol-3-yl)-1-benzofuran-6-yl]-N-(3-methylbutyl)methanesulfonamide] | 179 µM |  |  | 200 µM |  |  |  |  |  |  | 
CCCC1NC(c2c(-c3ccc(F)cc3)oc3cc(N(CCC(C)C)S(C)(=O)=O)c(C4CC4)cc23)=NO1 (centres unmarked) [Example 154, N-[5-cyclopropyl-2-(4-fluorophenyl)-3-(5-propyl-4,5-dihydro-1,2,4-oxadiazol-3-yl)-1-benzofuran-6-yl]-N-(3-methylbutyl)methanesulfonamide] | 21.3 µM |  |  | 63.3 µM |  |  |  |  |  |  | 
CCC1NC(c2c(-c3ccc(F)cc3)oc3cc(N(CCC(C)C)S(C)(=O)=O)c(C4CC4)cc23)=NO1 (centres unmarked) [Example 155, N-[5-cyclopropyl-3-(5-ethyl-4,5-dihydro-1,2,4-oxadiazol-3-yl)-2-(4-fluorophenyl)-1-benzofuran-6-yl]-N-(3-methylbutyl)methanesulfonamide] | 0.053 µM | 0.554 µM | 10 fold |  | 3.06 µM | 10 µM | 3.06 µM | 3.06 µM | 10 µM | 6.25 µM | 6.25 µM
COc1ccc(CN(c2cc3oc(-c4ccc(F)cc4)c(C4=NOCC(=O)N4)c3cc2C2CC2)S(C)(=O)=O)cc1 [Example 160, N-[5-cyclopropyl-2-(4-fluorophenyl)-3-(5-oxo-5,6-dihydro-4H-1,2,4-oxadiazin-3-yl)-1-benzofuran-6-yl]-N-(4-methoxybenzyl)methanesulfonamide] | 0.11 µM |  |  | 0.93 µM | 2.16 µM | 10 µM | 2.16 µM | 2.16 µM | 9.28 µM | 0.604 µM | 0.604 µM
CS(=O)(=O)Nc1cc2oc(-c3ccc(F)cc3)c(-c3nc(Cl)c(Cl)[nH]3)c2cc1C1CC1 [Example 163, N-[5-cyclopropyl-3-(4,5-dichloro-1H-imidazol-2-yl)-2-(4-fluorophenyl)-1-benzofuran-6-yl]methanesulfonamide] | 0.212 µM |  |  | 0.555 µM | 7.83 µM | 10 µM | 7.83 µM | 7.83 µM | 10 µM | 5.4 µM | 5.4 µM
CS(=O)(=O)Nc1cc2oc(-c3ccc(F)cc3)c(-c3nc(Cl)c[nH]3)c2cc1C1CC1 [Example 164, N-[3-(4-chloro-1H-imidazol-2-yl)-5-cyclopropyl-2-(4-fluorophenyl)-1-benzofuran-6-yl]methanesulfonamide] | 0.136 µM |  |  | 0.906 µM | 1 µM | 10 µM | 1 µM | 1 µM | 10 µM | 1 µM | 1 µM
CS(=O)(=O)Nc1cc2oc(-c3ccc(F)cc3)c(-c3nc(Br)c(Br)[nH]3)c2cc1C1CC1 [Example 165, N-[5-cyclopropyl-3-(4,5-dibromo-1H-imidazol-2-yl)-2-(4-fluorophenyl)-1-benzofuran-6-yl]methanesulfonamide] | 1.5 µM |  |  | 2.7 µM |  |  |  |  |  |  | 
Cc1ccc(C)n1-c1ccc2c(-c3ncc[nH]3)c(-c3ccccc3)oc2c1 [Example 166, 2-[6-(2,5-dimethyl-1H-pyrrol-1-yl)-2-phenyl-1-benzofuran-3-yl]-1H-imidazole] | 1.6 µM |  |  | 7 µM |  |  |  |  |  |  | 
CC(C)CCN(c1cc2oc(-c3ccc(F)cc3)c(-c3nc(C(F)(F)F)c[nH]3)c2cc1C1CC1)S(C)(=O)=O [Example 171, N-{5-cyclopropyl-2-(4-fluorophenyl)-3-[4-(trifluoromethyl)-1H-imidazol-2-yl]-1-benzofuran-6-yl}-N-(3-methylbutyl)methanesulfonamide] | 2.86 µM |  |  | 88.7 µM | 7.62 µM |  | 7.62 µM | 7.62 µM |  | 9.27 µM | 9.27 µM
COc1ccc(CN(c2cc3oc(-c4ccc(F)cc4)c(-c4nc(C)c(C)[nH]4)c3cc2C2CC2)S(C)(=O)=O)cc1 [Example 186, N-[5-cyclopropyl-3-(4,5-dimethyl-1H-imidazol-2-yl)-2-(4-fluorophenyl)-1-benzofuran-6-yl]-N-(4-methoxybenzyl)methanesulfonamide] | 4.5 µM |  |  | 4.5 µM |  |  |  |  |  |  | 
Cc1nc(-c2c(-c3ccc(F)cc3)oc3cc(NS(C)(=O)=O)c(C4CC4)cc23)[nH]c1C [Example 192, N-[5-cyclopropyl-3-(4,5-dimethyl-1H-imidazol-2-yl)-2-(4-fluorophenyl)-1-benzofuran-6-yl]methanesulfonamide] | 10.3 µM |  |  | 18 µM |  |  |  |  |  |  | 
